# Measured values taken from ChEMBL document CHEMBL1201862, “PubChem BioAssay data set” (2004).
# Activity calls are given as the source filed them.
# How the values were obtained:
# Large T antigen = Large T antigen (Simian virus 40, UniProt P03070); format: functional, Betapolyomavirus macacae;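 note: Confirmatory-stage PubChem screen for compounds that inhibit SV40 T antigen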
# [1] = target: Induced myeloid leukemia cell differentiation protein Mcl-1 (Homo sapiens, UniProt Q07820); format: functional
# Induced myeloid leukemia cell differentiation protein Mcl-1, sequence (Q07820 whole entry): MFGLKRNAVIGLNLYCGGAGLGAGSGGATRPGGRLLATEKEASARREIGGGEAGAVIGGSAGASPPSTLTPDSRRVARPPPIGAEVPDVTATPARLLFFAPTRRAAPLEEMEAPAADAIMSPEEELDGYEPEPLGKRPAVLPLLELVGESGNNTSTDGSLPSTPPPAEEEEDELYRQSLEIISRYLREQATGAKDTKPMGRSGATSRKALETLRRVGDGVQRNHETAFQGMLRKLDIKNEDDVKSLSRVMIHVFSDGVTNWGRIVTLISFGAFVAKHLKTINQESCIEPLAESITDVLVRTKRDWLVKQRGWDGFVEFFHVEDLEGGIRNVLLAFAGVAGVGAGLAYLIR
# Leucine aminopeptidase = target: T1, Leucine aminopeptidase (Plasmodium falciparum 3D7, UniProt Q8IL11); test: P. falciparum M17LAP inhibitors, primary screen, biochemical, fluorogenic H-Leu-NHMec substrate, 1536-well (AID 1619); format: functional
# T1 sequence (Q8IL11 whole entry): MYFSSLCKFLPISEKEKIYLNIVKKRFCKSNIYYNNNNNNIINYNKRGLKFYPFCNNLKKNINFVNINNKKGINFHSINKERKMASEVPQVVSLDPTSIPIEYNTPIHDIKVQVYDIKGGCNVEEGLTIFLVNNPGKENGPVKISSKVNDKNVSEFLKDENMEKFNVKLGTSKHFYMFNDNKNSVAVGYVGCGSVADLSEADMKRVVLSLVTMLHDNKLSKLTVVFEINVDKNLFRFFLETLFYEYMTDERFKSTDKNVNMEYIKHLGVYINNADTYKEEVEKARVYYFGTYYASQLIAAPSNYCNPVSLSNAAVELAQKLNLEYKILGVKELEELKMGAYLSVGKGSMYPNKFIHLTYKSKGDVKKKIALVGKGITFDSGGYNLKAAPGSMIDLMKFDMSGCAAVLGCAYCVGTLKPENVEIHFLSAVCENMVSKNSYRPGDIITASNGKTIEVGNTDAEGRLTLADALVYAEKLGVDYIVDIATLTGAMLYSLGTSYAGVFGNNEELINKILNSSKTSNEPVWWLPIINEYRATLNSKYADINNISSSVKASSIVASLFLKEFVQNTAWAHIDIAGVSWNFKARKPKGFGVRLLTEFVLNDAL
# [2] = target: T2, Calpain-2 catalytic subunit (Sus scrofa, UniProt P43367); test: pig calpain II inhibitor potency, dose response, biochemical, fluorogenic peptide substrate (AID 1420); format: functional
# T2 sequence (P43367 whole entry): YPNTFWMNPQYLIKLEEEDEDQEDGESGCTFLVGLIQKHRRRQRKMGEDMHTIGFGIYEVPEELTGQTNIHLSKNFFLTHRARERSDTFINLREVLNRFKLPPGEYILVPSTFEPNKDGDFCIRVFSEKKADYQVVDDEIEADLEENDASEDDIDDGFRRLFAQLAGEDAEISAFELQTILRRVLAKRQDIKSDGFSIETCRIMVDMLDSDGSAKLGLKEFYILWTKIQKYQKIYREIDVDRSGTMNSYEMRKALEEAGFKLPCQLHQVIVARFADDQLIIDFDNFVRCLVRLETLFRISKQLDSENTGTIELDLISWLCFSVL
# [3] = target: Eukaryotic translation initiation factor 4E (Mus musculus, UniProt P63073); test: eIF4E–eIF4G protein interaction inhibitors, dose response, biochemical, TR-FRET (AID 855); format: functional;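 note: potency for disrupting eIF4E binding to eIF4GI seen as loss of FRET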
# Eukaryotic translation initiation factor 4E, sequence (P63073 whole entry): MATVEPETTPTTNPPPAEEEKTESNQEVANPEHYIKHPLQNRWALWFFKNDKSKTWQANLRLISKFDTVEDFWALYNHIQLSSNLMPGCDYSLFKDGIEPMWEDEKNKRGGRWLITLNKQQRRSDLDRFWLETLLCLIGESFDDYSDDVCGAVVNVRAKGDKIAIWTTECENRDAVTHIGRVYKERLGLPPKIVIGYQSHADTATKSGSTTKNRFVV
# [4] = target: Voltage-dependent T-type calcium channel subunit alpha-1H (Homo sapiens, UniProt O95180); format: functional;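 note: channel activity triggered by adding a high calcium stimulation buffer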
# Voltage-dependent T-type calcium channel subunit alpha-1H, sequence (O95180 whole entry, the tested form may be a part): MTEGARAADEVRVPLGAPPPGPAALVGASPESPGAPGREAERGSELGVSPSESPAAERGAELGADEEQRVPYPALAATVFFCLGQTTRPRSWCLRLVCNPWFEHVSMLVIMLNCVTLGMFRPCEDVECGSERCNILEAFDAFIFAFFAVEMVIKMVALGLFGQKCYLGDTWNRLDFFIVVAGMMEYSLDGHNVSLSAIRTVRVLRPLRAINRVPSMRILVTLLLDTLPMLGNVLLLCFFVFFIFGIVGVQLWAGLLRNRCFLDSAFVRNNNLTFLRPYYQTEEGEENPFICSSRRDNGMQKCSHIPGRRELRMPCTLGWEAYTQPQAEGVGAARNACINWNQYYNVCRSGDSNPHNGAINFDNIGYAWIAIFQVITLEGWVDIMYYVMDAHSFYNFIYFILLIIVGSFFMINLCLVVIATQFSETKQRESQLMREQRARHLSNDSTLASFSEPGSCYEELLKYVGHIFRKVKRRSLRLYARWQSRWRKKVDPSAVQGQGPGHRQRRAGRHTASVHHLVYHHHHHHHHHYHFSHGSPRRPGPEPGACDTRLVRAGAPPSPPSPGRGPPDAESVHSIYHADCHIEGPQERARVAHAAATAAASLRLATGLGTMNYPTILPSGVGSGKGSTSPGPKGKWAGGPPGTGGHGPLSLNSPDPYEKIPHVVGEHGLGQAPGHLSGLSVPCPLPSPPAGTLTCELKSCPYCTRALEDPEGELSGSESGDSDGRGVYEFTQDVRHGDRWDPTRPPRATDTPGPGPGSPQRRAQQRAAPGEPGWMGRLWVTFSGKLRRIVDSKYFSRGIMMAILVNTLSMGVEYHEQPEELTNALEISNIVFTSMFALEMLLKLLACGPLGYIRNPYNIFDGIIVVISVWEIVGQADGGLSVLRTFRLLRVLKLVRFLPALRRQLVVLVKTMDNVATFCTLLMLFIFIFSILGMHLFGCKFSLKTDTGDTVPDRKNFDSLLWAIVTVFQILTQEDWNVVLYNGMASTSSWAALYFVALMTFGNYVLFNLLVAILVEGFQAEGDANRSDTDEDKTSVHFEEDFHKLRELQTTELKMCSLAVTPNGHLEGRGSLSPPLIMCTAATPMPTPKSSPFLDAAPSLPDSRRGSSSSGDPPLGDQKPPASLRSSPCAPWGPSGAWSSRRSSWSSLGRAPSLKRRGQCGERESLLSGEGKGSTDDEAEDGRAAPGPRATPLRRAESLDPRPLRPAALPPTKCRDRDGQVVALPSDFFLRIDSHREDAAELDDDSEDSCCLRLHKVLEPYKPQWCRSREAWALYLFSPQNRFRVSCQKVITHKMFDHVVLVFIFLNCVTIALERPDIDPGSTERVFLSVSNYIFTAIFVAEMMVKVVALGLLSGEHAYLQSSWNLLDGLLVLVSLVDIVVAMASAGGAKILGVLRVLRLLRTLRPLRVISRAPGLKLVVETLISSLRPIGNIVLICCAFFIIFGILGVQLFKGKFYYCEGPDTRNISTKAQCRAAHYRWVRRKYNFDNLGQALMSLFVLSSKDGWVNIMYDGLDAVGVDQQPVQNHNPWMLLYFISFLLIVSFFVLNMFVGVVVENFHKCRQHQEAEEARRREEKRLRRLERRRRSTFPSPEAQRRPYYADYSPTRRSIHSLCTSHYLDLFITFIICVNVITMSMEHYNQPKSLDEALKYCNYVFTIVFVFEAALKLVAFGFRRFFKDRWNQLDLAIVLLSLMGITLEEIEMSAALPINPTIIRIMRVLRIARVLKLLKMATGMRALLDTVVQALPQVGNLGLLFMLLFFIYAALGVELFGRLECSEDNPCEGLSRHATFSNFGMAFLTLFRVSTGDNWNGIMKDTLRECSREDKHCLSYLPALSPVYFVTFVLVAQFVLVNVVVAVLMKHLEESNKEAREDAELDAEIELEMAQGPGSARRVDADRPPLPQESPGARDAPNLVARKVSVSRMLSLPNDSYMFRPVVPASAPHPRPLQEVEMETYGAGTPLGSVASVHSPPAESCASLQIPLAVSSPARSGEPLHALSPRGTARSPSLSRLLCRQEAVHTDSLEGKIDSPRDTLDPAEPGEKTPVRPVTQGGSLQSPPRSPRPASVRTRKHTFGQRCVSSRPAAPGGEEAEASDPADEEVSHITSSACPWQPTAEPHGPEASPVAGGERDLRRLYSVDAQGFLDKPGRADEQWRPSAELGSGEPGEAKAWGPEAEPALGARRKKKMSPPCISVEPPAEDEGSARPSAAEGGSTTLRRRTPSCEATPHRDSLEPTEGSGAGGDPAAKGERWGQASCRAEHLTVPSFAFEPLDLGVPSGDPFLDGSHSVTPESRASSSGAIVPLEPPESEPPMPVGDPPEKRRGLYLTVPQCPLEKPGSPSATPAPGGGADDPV
# [5] = target: T3, Carboxy-terminal domain RNA polymerase II polypeptide A small phosphatase 1 (Homo sapiens, UniProt Q9GZU7); test: inhibitors of CTDSP1, concentration-response testing, biochemical assay, absorbance-based, actives from ultra-high-throughput screening (AID 540297); format: functional
# T3 sequence (Q9GZU7 whole entry): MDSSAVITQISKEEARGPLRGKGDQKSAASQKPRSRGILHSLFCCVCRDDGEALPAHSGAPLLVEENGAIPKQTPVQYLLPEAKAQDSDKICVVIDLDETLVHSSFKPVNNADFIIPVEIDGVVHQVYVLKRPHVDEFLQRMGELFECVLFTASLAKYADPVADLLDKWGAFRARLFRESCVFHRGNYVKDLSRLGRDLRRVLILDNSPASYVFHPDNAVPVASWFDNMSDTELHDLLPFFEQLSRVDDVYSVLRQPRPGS
# [6] = target: Glucose-6-phosphate 1-dehydrogenase (Homo sapiens, UniProt P11413); test: human G6PD enzyme inhibitors, dose response, selectivity assay for P. falciparum G6PD inhibitor project, biochemical, fluorescence (AID 504792); format: functional
# Glucose-6-phosphate 1-dehydrogenase, sequence (P11413 whole entry): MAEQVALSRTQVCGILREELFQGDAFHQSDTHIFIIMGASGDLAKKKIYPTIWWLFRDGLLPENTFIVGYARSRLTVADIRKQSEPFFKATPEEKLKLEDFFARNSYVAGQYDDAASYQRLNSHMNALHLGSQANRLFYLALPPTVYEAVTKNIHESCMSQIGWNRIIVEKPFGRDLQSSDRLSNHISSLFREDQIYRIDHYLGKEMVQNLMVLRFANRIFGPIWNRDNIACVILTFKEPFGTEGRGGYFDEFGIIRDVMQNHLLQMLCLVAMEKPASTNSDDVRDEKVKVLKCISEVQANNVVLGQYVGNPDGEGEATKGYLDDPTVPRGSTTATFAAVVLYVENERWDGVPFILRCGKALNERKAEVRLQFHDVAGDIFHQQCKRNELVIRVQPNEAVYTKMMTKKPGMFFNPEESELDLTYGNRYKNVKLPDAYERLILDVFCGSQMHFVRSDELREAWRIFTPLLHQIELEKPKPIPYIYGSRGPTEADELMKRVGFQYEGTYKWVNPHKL
# [7] = target: FAD-linked sulfhydryl oxidase ALR (Homo sapiens, UniProt P55789); test: inhibitors of human ALR sulfhydryl oxidase, dose response, biochemical, H2O2 detection, luminescence, cherry-pick (AID 493248)
# FAD-linked sulfhydryl oxidase ALR, sequence (P55789 whole entry): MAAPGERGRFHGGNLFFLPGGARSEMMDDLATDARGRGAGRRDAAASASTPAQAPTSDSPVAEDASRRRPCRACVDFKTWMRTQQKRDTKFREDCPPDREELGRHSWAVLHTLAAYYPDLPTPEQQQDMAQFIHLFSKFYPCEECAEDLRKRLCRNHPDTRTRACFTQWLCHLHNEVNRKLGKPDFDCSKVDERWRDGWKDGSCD
# Vero = Vero cell cytotoxicity, cytotoxicity control for flavivirus capping enzyme inhibitors (AID 588742); format: functional; settings: Chlorocebus sabaeus
# Cytochrome P450 2C9 = Cytochrome P450 2C9 (Homo sapiens, UniProt P11712)
# [8] = target: 26S proteasome non-ATPase regulatory subunit 14 (Homo sapiens, UniProt O00487); test: inhibition of proteasome subunit RPN11 – biochemical, fluorescence polarization, uHTS hits, confirmation (AID 602368); format: functional
# [9] = target: 72 kDa type IV collagenase (Homo sapiens, UniProt P08253); test: Dose Response validation of uHTS RPN11 inhibitor hits using a MMP-2 Fluorescence assay.; format: functional
# 72 kDa type IV collagenase, sequence (P08253 whole entry): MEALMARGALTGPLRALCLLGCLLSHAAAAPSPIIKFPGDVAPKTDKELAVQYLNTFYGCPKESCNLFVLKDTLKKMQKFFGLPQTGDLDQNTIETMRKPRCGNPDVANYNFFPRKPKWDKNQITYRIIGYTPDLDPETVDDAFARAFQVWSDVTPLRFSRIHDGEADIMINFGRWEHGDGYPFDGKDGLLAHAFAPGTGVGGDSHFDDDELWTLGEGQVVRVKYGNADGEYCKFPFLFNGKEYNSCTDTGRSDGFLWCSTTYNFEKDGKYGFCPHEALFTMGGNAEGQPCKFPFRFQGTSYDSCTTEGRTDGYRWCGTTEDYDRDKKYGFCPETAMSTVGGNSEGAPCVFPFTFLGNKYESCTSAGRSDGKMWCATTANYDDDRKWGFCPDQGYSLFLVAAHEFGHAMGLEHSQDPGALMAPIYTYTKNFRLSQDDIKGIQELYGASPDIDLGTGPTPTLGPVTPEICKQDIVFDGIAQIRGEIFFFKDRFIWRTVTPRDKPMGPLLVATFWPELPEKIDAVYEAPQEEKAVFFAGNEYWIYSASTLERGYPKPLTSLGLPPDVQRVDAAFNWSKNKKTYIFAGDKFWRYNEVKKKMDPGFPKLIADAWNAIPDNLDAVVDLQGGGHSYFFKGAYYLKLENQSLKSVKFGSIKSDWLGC
# Prothrombin = Prothrombin (Bos taurus, UniProt P00735); test: thrombin inhibition, dose response, biochemical, fluorescence polarization, uHTS hits (AID 602369); format: functional
# [10] = target: T4, Rac GTPase-activating protein 1 (Homo sapiens, UniProt Q9H0H5); test: MgcRacGAP GTPase-activating activity inhibitors, confirmation, biochemical, ADP Hunter fluorescence, primary and confirmatory (AID 624330); format: functional
# T4 sequence (Q9H0H5 whole entry): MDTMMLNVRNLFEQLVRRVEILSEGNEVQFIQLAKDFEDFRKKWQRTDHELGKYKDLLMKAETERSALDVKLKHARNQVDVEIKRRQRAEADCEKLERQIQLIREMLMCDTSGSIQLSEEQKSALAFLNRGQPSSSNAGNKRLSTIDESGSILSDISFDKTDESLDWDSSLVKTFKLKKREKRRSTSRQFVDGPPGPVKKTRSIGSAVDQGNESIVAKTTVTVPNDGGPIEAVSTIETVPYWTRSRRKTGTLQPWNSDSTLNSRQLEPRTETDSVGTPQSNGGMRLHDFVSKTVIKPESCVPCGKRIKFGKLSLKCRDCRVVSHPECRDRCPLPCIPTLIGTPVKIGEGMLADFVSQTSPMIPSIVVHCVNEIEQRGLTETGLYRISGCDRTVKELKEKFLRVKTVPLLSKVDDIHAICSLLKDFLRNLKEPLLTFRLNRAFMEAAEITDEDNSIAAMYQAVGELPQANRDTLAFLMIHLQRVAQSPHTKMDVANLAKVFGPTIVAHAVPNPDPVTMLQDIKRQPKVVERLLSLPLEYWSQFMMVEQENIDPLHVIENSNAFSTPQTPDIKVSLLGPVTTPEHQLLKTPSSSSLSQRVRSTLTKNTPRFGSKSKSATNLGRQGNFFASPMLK
# [11] = THP-1 cell cytotoxicity, dose response, cytotoxicity control for non-replicating M. tuberculosis project (AID 489025); format: functional
# [12] = target: T5, Heat shock factor protein 1 (Mus musculus, UniProt P38532); test: HSF1 potentiators in luciferase reporter cells, confirmation, cell-based, NIH3T3, luminescence, dose retest (AID 435004); format: functional;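 note: stress induced by proteasome inhibitor MG132 added 30 min after compound; luciferase reporter driven by HSF1 response element in NIH3T3 cells; actives raise luminescence as potentiators of the MG132 stress response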
# T5 sequence (P38532 whole entry): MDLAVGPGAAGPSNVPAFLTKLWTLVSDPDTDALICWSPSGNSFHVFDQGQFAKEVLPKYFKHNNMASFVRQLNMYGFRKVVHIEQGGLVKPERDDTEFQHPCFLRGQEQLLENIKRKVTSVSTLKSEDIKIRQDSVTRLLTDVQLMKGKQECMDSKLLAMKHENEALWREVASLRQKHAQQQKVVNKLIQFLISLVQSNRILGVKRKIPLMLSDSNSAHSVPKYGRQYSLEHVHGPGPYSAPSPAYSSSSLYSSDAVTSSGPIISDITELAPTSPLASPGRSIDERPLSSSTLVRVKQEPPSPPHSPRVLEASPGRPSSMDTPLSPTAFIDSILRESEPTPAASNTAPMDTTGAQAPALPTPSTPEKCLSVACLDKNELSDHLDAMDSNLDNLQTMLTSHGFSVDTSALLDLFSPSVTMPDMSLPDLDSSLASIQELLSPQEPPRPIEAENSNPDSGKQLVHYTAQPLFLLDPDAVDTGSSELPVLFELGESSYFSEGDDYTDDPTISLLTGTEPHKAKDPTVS
# [13] = Vero E6 cell cytotoxicity, dose response, cytotoxicity control for non-replicating M. tuberculosis project, secondary assay (AID 492998); format: functional, VeroE6; settings: Vero C1008
# cells = format: functional
# [14] = system: Streptococcus sp. 'group A'; test: growth inhibition of control SK(-) GAS strain, dose response, counter-screen for streptokinase expression inhibitor project, luminescence, kanamycin, BacTiterGlo, confirmation (AID 1900); format: functional, organism-based
# Streptokinase A = target: T6, Streptokinase A (Streptococcus pyogenes serotype M1, UniProt P10520); test: S. pyogenes streptokinase expression inhibitors, potency, dose response, plasminogen activation absorbance, OD405 (AID 1914); format: functional, Streptococcus pyogenes M1 GAS;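 note: secreted streptokinase activity via plasminogen activation per viability signal from cell pellet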
# T6 sequence (P10520 whole entry): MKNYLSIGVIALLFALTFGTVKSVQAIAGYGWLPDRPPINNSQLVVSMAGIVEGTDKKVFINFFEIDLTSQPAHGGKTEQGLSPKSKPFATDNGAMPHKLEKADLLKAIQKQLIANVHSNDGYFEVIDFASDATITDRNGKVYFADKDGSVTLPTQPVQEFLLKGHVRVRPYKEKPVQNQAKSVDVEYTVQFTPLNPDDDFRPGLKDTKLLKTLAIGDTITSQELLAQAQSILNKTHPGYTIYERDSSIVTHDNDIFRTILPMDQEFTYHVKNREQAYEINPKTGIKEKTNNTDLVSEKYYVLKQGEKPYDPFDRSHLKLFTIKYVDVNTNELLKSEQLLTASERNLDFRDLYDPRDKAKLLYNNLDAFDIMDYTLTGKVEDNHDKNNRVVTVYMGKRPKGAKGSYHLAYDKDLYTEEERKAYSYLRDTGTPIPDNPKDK
# Streptococcus = test: Group A Streptococcus viability loss, dose response, counter-screen for streptokinase expression inhibitor project, luminescence, BacTiterGlo (AID 1915); format: functional, organism-based;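 note: potency for reduction of bacterial viability or growth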
# Large T antigen, sequence (P03070 whole entry): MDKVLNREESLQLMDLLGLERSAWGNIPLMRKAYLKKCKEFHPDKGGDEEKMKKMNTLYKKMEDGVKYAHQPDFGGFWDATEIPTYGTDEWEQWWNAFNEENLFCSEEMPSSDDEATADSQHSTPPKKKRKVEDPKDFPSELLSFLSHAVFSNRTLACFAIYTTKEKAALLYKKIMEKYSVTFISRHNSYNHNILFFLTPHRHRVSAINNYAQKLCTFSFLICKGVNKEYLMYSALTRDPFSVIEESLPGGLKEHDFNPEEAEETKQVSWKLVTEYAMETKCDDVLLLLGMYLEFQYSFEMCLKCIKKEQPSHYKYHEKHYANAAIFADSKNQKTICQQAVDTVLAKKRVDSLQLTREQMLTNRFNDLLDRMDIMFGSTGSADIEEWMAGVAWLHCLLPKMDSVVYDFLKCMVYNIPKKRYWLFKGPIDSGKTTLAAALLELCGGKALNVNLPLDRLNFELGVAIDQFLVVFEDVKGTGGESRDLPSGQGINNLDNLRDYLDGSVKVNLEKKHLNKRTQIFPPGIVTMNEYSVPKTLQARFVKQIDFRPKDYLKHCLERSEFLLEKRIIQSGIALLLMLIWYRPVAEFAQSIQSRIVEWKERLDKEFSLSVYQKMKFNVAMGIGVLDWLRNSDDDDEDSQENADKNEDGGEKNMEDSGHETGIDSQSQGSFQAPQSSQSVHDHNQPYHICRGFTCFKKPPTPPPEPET
compound,measurement,setting,value
O=C1CSC(=S)N1/N=C/c1ccc(O)c([N+](=O)[O-])c1,IC50,Large T antigen,26.8 µM (active)
same,IC50,[1],6.99 µM (active)
O=C(Nc1nc(=O)[nH]s1)c1ccccc1,IC50,Leucine aminopeptidase,18.1 µM (active)
same,IC50,[2],> 50 µM (not active)
Cc1cccc(-c2nnc(SCC3CNC(=O)O3)n2-c2ccc(Cl)cc2)c1 (stereo not drawn),IC50,[3],> 64 µM (inactive)
Cc1ccc2oc(=O)n(Cc3ccccc3OC(C)C)c2c1,IC50,[2],> 50 µM (not active)
same,EC50,[4],8.57 µM (active)
CCCCN1C(=O)/C(=C(/C#N)C(N)=O)c2ccccc21,IC50,Large T antigen,60.5 µM (active)
Cc1cc(OCC[N+]2(C)CCCCC2)nc2ccccc12,IC50,[5],3.69 µM (active)
O=C1NC(=S)N(Cc2ccco2)C(=O)/C1=C\c1cccs1,IC50,[3],9.49 µM (active)
CC(=O)c1cccc(NC(=O)c2cnn(-c3ccccc3)c2C)c1,IC50,[6],> 80 µM (inactive)
N#Cc1ccc(-c2csc(NC3=NCCCCC3)n2)cc1,IC50,[3],> 64 µM (inactive)
CCN(CC)c1ccc(NC(=O)c2cccc(F)c2)c(C)c1,IC50,Large T antigen,28.3 µM (active)
same,AC50,[7],1.19 µM (active)
same,CC50,Vero,> 40 µM (active)
same,AC50,Cytochrome P450 2C9,inconclusive
O=C(O)c1ccc(COc2ccccc2/C=C2/NC(=O)N(c3cccc(Cl)c3)C2=O)cc1,IC50,[5],2.75 µM (active)
same,IC50,[8],18.7 µM (active)
same,IC50,[9],15.6 µM (active)
same,IC50,Prothrombin,> 100 µM (inactive)
COc1cc(/C=N\Nc2cc(=O)n(C)c(=O)n2C)ccc1O,IC50,Large T antigen,23.7 µM (active)
same,IC50,[10],33.7 µM (active)
O=C(c1ccc2ccccc2c1)N1CCN(c2ccc(O)cc2)CC1,IC50,Large T antigen,9.84 µM (active)
Cc1ccc(SCC(=O)c2c(C)nc3cc(C)ccn23)cc1,IC50,[2],6.79 µM (not active)
CC1(C)CC(=O)C2=C(C1)OC(N)=C(C#N)C2C#Cc1ccccc1 (stereo not drawn),CC50,[11],38.4 µM (active)
same,EC50,[12],38.3 µM (active)
O=C(CNC1CCCC1)Nc1ccc(N2CCCCCC2)cc1,CC50,[13],18.1 µM (active)
same,IC50,cells,17.8 µM (active)
same,IC50,[10],75.8 µM (active)
O=C(N/N=C/c1cc(Br)cs1)c1c[nH]c2ccccc12,IC50,[2],4.39 µM (not active)
O=C(Nc1nccs1)c1sc2ccccc2c1Cl,EC50,[14],18.4 µM (active)
same,EC50,Streptokinase A,> 150 µM (not active)
same,EC50,Streptococcus,> 150 µM (not active)
same,CC50,[13],> 20 µM (active)
same,IC50,cells,20.5 µM (active)
CCOC(=O)CSc1nc(C(C)C)nc2sc(C)c(C)c12,IC50,[2],2.34 µM (not active)
CC[N+]1=CN(c2ccccc2)C(C)=CC1(C)C,IC50,[5],6.23 µM (active)
O=[N+]([O-])C(=c1ccc2c(c1)N1C3=C(CCCC3)CC3CCCCC31N=2)[N+](=O)[O-] (stereo not drawn),IC50,[1],1.95 µM (active)
